Experimental data published in patent US20230236172A1, “T Cells That Respond To Patient Neoepitopes” (NantCell, Inc., priority 2020, published 2023).

Test system: T cells generated with E. coli expressed polytope
Test: ELISPOT with in vitro translated epitope peptides on the polytope-generated T cell line (FIG. 10)
Type: cell-based, human
Method: An exemplary synthetic DNA template for creating neoepitope peptides in vitro is depicted below, and the corresponding sequences are shown in SEQ ID NO:18, SEQ ID NO:19, SEQ ID NO:20, and SEQ ID NO:21 respectively.
One template strand oligo per epitope plus sense strand universal promoter oligo was used. […] Rather the reaction required simply adding annealed oligos to expression mix, and the mixture was allowed to react for 2 hours.

Sequence | Recognition of epitope by T cells in the T cell line
FMRPHERNGFTVLCPKNMIIKPGKI [E6] | recognized by T cells
WQAGILARNLVPMVATVQGQNLKYQ (IVT&T peptide9) | recognized by T cells
